Values quoted from earlier work in patent US20250262218A1, “COMPOSITIONS, FORMULATIONS AND METHODS FOR STIMULATING RESPIRATION” (Auros Pharma LLC, priority 2024, published 2025).
Like-named read-outs stand apart in the source and are kept apart here.

- solubility (in alcohol): sparingly soluble
- solubility (in ether): practically insoluble
- solubility (in water): soluble
- stability (light and air): stable in light and air
SMILES: CCN1CC(CCN2CCOCC2)C(c2ccccc2)(c2ccccc2)C1=O (stereo not shown) [doxapram, 1-ethyl-4-(2-morpholinoethyl)-3,3-diphenyl-2-pyrrolidinone]
